From PubChem BioAssay AID248 (DTP/NCI, 2004)
Where “and” joins values, the source holds several entries; their conditions need not be identical. Equal values may be shown once. Toxic doses and inconclusive results are not listed. Cut-off read from the data, not from the text of the source: active = T/C of 150% or more; inactive = T/C below 125%.

Test system: L1210 leukemia ip in BDF1 mice, survival T/C
Test: NCI In Vivo Anticancer Drug Screen. Data for tumor model L1210 Leukemia (intraperitoneal) in B6D2F1 (BDF1) mice
Conditions: endpoint: mean survival time, higher = longer survival
Summary of the method: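 Ratio derived from survival: compound-dosed mice over vehicle-dosed mice, all bearing a transplantable tumor.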

[1] = dose: 100.0 mg/kg/injection, schedule: Q01DX009 (ip), vehicle: saline
[2] = dose: 200.0 mg/kg/injection, schedule: Q01DX009 (ip), vehicle: saline
[3] = dose: 400.0 mg/kg/injection, schedule: Q01DX009 (ip), vehicle: saline
[4] = dose: 100.0 mg/kg/injection, schedule: Q04DX003 (ip), vehicle: Klucel (hydroxypropylcellulose) (HPC)
[5] = dose: 200.0 mg/kg/injection, schedule: Q04DX003 (ip), vehicle: Klucel (hydroxypropylcellulose) (HPC)
[6] = dose: 400.0 mg/kg/injection, schedule: Q04DX003 (ip), vehicle: Klucel (hydroxypropylcellulose) (HPC)
[7] = dose: 100.0 mg/kg/injection, schedule: Q01DX009 (ip), vehicle: Klucel (hydroxypropylcellulose) (HPC)
[8] = dose: 200.0 mg/kg/injection, schedule: Q01DX009 (ip), vehicle: Klucel (hydroxypropylcellulose) (HPC)
[9] = dose: 400.0 mg/kg/injection, schedule: Q01DX009 (ip), vehicle: Klucel (hydroxypropylcellulose) (HPC)
[10] = dose: 100.0 mg/kg/injection, schedule: Q01DX001 (ip), vehicle: carboxymethylcellulose (CMC)
[11] = dose: 200.0 mg/kg/injection, schedule: Q01DX001 (ip), vehicle: carboxymethylcellulose (CMC)
[12] = dose: 400.0 mg/kg/injection, schedule: Q01DX001 (ip), vehicle: carboxymethylcellulose (CMC)
[13] = dose: 100.0 mg/kg/injection, schedule: Q01DX009 (ip), vehicle: saline with Tween-80
[14] = dose: 200.0 mg/kg/injection, schedule: Q01DX009 (ip), vehicle: saline with Tween-80

Measured: T/C

O=NN(CCCl)C(=O)Nc1ccc2c3c(cccc13)-c1ccccc1-2
inactive: dose: 118.0 mg/kg/injection, schedule: Q01DX009 (ip), vehicle: carboxymethylcellulose (CMC) 111 % of control | dose: 177.0 mg/kg/injection, schedule: Q01DX009 (ip), vehicle: carboxymethylcellulose (CMC) 119 % of control | dose: 266.0 mg/kg/injection, schedule: Q01DX009 (ip), vehicle: carboxymethylcellulose (CMC) 113 % of control | dose: 600.0 mg/kg/injection, schedule: Q01DX001 (ip), vehicle: carboxymethylcellulose (CMC) 117 % of control | dose: 600.0 mg/kg/injection, schedule: Q01DX009 (ip), vehicle: carboxymethylcellulose (CMC) 98 % of control

CC(CC=O)CCCC(C)(C)O (stereo not drawn)
inactive: [1] 102 % of control | [2] 102 % of control | [3] 93 % of control

Nc1ccc2nc(NCCCO)c3ccccc3c2c1
inactive: [4] 107 % of control | [5] 113 % of control | [6] 102 % of control

O=C(Nc1cccc(C(=O)Nc2ccc(C3=NCCN3)cc2)c1)Nc1cccc(C(=O)Nc2ccc(C3=NCCN3)cc2)c1
inactive: dose: 15.0 mg/kg/injection, schedule: Q01DX Z (ip), vehicle: methylcellulose (MC) 94 % of control | dose: 30.0 mg/kg/injection, schedule: Q01DX Z (ip), vehicle: methylcellulose (MC) 105 % of control | dose: 60.0 mg/kg/injection, schedule: Q01DX Z (ip), vehicle: methylcellulose (MC) 100 % of control | dose: 120.0 mg/kg/injection, schedule: Q01DX Z (ip), vehicle: methylcellulose (MC) 102 % of control | dose: 125.0 mg/kg/injection, schedule: Q01DX Z (ip), vehicle: water 93 % of control | dose: 250.0 mg/kg/injection, schedule: Q01DX Z (ip), vehicle: water 102 % of control | dose: 500.0 mg/kg/injection, schedule: Q01DX Z (ip), vehicle: water 101 % of control

NC(C(=O)O)C(O)C(=O)O (stereo not drawn)
inactive: dose: 75.0 mg/kg/injection, schedule: Q04DX003 (ip), vehicle: saline 98 % of control | dose: 150.0 mg/kg/injection, schedule: Q04DX003 (ip), vehicle: saline 98 % of control | dose: 300.0 mg/kg/injection, schedule: Q04DX003 (ip), vehicle: saline 96 % of control

C/C(=N/O)c1c[n+]([O-])ccn1
inactive: [1] 102 % of control | [4] 94 % of control | dose: 100.0 mg/kg/injection, schedule: Q04DX003 (ip), vehicle: saline 101 % of control | [2] 94 % of control | [5] 94 % of control | dose: 200.0 mg/kg/injection, schedule: Q04DX003 (ip), vehicle: saline 98 % of control | [3] 96 % of control | [6] 100 % of control | dose: 400.0 mg/kg/injection, schedule: Q04DX003 (ip), vehicle: saline 102 % of control

CC(=O)Oc1ccc(C2(c3ccc(OC(C)=O)cc3)C(=O)Nc3ccccc32)cc1
inactive: dose: 100.0 mg/kg/injection, schedule: Q01DX001 (ip), vehicle: saline 91 % of control | [7] 103 % of control | dose: 200.0 mg/kg/injection, schedule: Q01DX001 (ip), vehicle: saline 92 % of control | [8] 97 % of control | dose: 400.0 mg/kg/injection, schedule: Q01DX001 (ip), vehicle: saline 87 % of control | [9] 104 % of control

NC1CC(c2ccccc2)NC(c2ccccc2)C1 (stereo not drawn)
inactive: dose: 15.0 mg/kg/injection, schedule: Q01DX001 (ip), vehicle: carboxymethylcellulose (CMC) 100 % of control

CCCCCN(CCCCC)C(=O)c1ccc([N+](=O)[O-])cc1
inactive: [7] 97 % of control | [4] 100 % of control | [8] 97 % of control | [5] 96 % of control | [9] 94 % of control | [6] 105 % of control

O=S(=O)(O)c1ccc2cc(N=Nc3c(O)ccc4ccccc34)ccc2c1
inactive: dose: 100.0 mg/kg/injection, schedule: Q04DX003 (ip), vehicle: carboxymethylcellulose (CMC) 95 % of control | dose: 200.0 mg/kg/injection, schedule: Q04DX003 (ip), vehicle: carboxymethylcellulose (CMC) 103 % of control | dose: 400.0 mg/kg/injection, schedule: Q04DX003 (ip), vehicle: carboxymethylcellulose (CMC) 95 % of control

Cc1ccc(S(=O)(=O)NNC(=O)c2ccccc2NCC(O)C(O)C(O)CO)cc1 (stereo not drawn)
inactive: [10] 98 % of control | [11] 96 % of control | [12] 98 % of control

C=CCOC(=O)CCOCC
inactive: dose: 55.0 mg/kg/injection, schedule: Q01DX Z (ip), vehicle: methylcellulose (MC) 90 % of control | dose: 83.0 mg/kg/injection, schedule: Q01DX Z (ip), vehicle: methylcellulose (MC) 94 % of control | dose: 125.0 mg/kg/injection, schedule: Q01DX Z (ip), vehicle: methylcellulose (MC) 90 % of control

CC1(C)N=C(N)N=C(N)N1c1ccc(Cl)c(Cl)c1
inactive: dose: 1.0 mg/kg/injection, schedule: Q01DX009 (ip), vehicle: saline 111 % of control | dose: 1.25 mg/kg/injection, schedule: Q01DX009 (ip), vehicle: saline 109 % of control | dose: 2.5 mg/kg/injection, schedule: Q01DX009 (ip), vehicle: saline 109 % of control and 117 % of control | dose: 5.0 mg/kg/injection, schedule: Q01DX001 (ip), vehicle: saline 105 % of control | dose: 5.0 mg/kg/injection, schedule: Q01DX009 (ip), vehicle: saline 119 % of control | dose: 10.0 mg/kg/injection, schedule: Q01DX001 (ip), vehicle: saline 102 % of control and 106 % of control | dose: 10.0 mg/kg/injection, schedule: Q01DX009 (ip), vehicle: saline 117 % of control and 118 % of control | dose: 20.0 mg/kg/injection, schedule: Q01DX001 (ip), vehicle: saline 105 % of control and 106 % of control | dose: 20.0 mg/kg/injection, schedule: Q01DX009 (ip), vehicle: saline 92 % of control | dose: 36.0 mg/kg/injection, schedule: Q01DX009 (ip), vehicle: saline 88 % of control | dose: 40.0 mg/kg/injection, schedule: Q01DX001 (ip), vehicle: saline 107 % of control and 92 % of control

Cc1ccc(S(=O)(=O)N=S(C)C)cc1
inactive: dose: 50.0 mg/kg/injection, schedule: Q01DX001 (ip), vehicle: carboxymethylcellulose (CMC) 104 % of control | [10] 104 % of control | [11] 98 % of control | [12] 93 % of control | dose: 800.0 mg/kg/injection, schedule: Q01DX001 (ip), vehicle: carboxymethylcellulose (CMC) 105 % of control | dose: 1200.0 mg/kg/injection, schedule: Q01DX001 (ip), vehicle: carboxymethylcellulose (CMC) 103 % of control | dose: 1600.0 mg/kg/injection, schedule: Q01DX001 (ip), vehicle: carboxymethylcellulose (CMC) 109 % of control

CCCC(=O)c1ccc(OC)c(OC)c1
inactive: [7] 101 % of control | [8] 95 % of control

OC(c1ccccc1)C1CCCC1 (stereo not drawn)
inactive: dose: 50.0 mg/kg/injection, schedule: Q01DX009 (ip), vehicle: saline with Tween-80 90 % of control | [13] 93 % of control | [14] 90 % of control

Nc1nc(N)nc(-c2ccccc2N=NNc2ccc([N+](=O)[O-])cc2)n1
inactive: dose: 100.0 mg/kg/injection, schedule: Q04DX002 (ip), vehicle: Klucel (hydroxypropylcellulose) (HPC) 97 % of control | dose: 200.0 mg/kg/injection, schedule: Q04DX002 (ip), vehicle: Klucel (hydroxypropylcellulose) (HPC) 93 % of control | dose: 400.0 mg/kg/injection, schedule: Q04DX002 (ip), vehicle: Klucel (hydroxypropylcellulose) (HPC) 89 % of control

NP(Cl)(c1ccccc1)(c1ccccc1)c1ccccc1
inactive: dose: 0.2 mg/kg/injection, schedule: Q04DX003 (ip), vehicle: Klucel (hydroxypropylcellulose) (HPC) 96 % of control | dose: 0.39 mg/kg/injection, schedule: Q04DX003 (ip), vehicle: Klucel (hydroxypropylcellulose) (HPC) 99 % of control | dose: 0.78 mg/kg/injection, schedule: Q04DX003 (ip), vehicle: Klucel (hydroxypropylcellulose) (HPC) 97 % of control

CSc1nnc(-c2cccs2)s1
inactive: [4] 98 % of control

O=C(O)C1CCOCC1
inactive: [7] 98 % of control | [4] 96 % of control | [8] 95 % of control | [5] 89 % of control | [9] 111 % of control | [6] 88 % of control

Cc1ccc(S(=O)(=O)OC2CC(C(=O)O)N(S(=O)(=O)c3ccc(C)cc3)C2)cc1 (stereo not drawn)
inactive: [13] 104 % of control | dose: 100.0 mg/kg/injection, schedule: Q04DX003 (ip), vehicle: saline with Tween-80 98 % of control and 92 % of control | [14] 95 % of control | dose: 200.0 mg/kg/injection, schedule: Q04DX003 (ip), vehicle: saline with Tween-80 97 % of control and 101 % of control | dose: 400.0 mg/kg/injection, schedule: Q04DX003 (ip), vehicle: saline with Tween-80 96 % of control and 107 % of control
